# Assay results from patent publication US11285156B2, “Substituted piperazines as KRAS G12C inhibitors” (Amgen Inc., priority 2018, dated 2022).
# Read-outs that look alike come from different tables or passages of the source.
# Columns and labels:
# [1] = system: Phosphorylation of ERK1/2 in A549 cells; assay: Phospho-ERK1/2 MSD assay in A549 cells; assay type: cell-based; conditions: read-out: p-ERK IC50 (2 h, A549; μM), 2 h compound treatment, A549 cells, EGF stimulated
# How it was run: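 MSD electrochemiluminescent read-out of phospho-ERK1/2 in RIPA lysates. Cells in RPMI 1640 with 10% FBS received titrated compound for 2 or 4 h, then 10 ng/mL EGF for 10 min before ice-cold PBS wash and lysis.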
# [2] = target: GDP-bound KRAS protein (aa 1-169), containing both G12C and C118A amino acid substitutions (Homo sapiens (Human), UniProt P01116, C118A/G12C); assay: Coupled nucleotide exchange assay (SOS-mediated nucleotide exchange, AlphaScreen); assay type: biochemical; conditions: 5 min compound pre-incubation; for IC50: read-out: Coupled exchange IC50 (5 min; μM)
# Sequence of GDP-bound KRAS protein (aa 1-169), containing both G12C and C118A amino acid substitutions (P01116 other isoform, or with tags, fused parts or gaps G12C/C118A): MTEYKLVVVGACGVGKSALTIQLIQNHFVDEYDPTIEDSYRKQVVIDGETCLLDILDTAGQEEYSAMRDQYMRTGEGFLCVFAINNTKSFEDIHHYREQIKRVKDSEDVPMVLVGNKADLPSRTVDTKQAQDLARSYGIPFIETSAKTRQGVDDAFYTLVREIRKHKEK
# [3] = system: Phosphorylation of ERK1/2 in MIA PaCa-2 cells; assay: Phospho-ERK1/2 MSD assay in MIA PaCa-2 cells; assay type: cell-based; conditions: read-out: p-ERK IC50 (2 h, MiaPaCa-2; μM), 2 h compound treatment, MIA PaCa-2 cells, EGF stimulated
# How it was run: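 Phospho-ERK1/2 measured by MSD electrochemiluminescence kit in RIPA lysates of MIA PaCa-2 cells. Cells were treated with compound titrations for 2 or 4 h at 37 °C, 5% CO2, followed by a 10 min pulse of 10 ng/mL EGF.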
Coupled exchange IC50 (5 min; μM) [2] [µM],Compound,"IC50 ([1]; Homo sapiens, A549, 2 h) [µM]",IC50 [2] [µM],"IC50 ([3]; Homo sapiens, MIA PaCa-2, 2 h) [µM]",IC50 [3] [µM],IC50 [1] [µM]
–,"C=CC(=O)N1CCN(c2nc(=O)n(-c3c(CN(C)C)cccc3C(C)C)c3nc(-c4ccccc4F)c(Cl)cc23)[C@@H](C)C1 [Example 80-13, 6-Chloro-1-[2-[(dimethylamino)methyl]-6-isopropyl-phenyl]-7-(2-fluorophenyl)-4-[(2S)-2-methyl-4-prop-2-enoyl-piperazin-1-yl]pyrido[2,3-d]pyrimidin-2-one]",> 7.5,0.043,0.053,–,–
–,"C=CC(=O)N1C[C@H](C)N(c2nc(=O)n(-c3c(C)cc(CN(C)C)cc3C(C)C)c3nc(-c4ccccc4F)c(F)cc23)C[C@H]1C [Example 80-20, 1-[4-[(Dimethylamino)methyl]-2-isopropyl-6-methyl-phenyl]-4-[(2S,5R)-2,5-dimethyl-4-prop-2-enoyl-piperazin-1-yl]-6-fluoro-7-(2-fluorophenyl)pyrido[2,3-d]pyrimidin-2-one]",> 7.5,0.763,–,0.735,–
–,"C=CC(=O)N1C[C@H](C)N(c2nc(=O)n(-c3c(C)cc(CN(C)C)cc3C(C)C)c3nc(-c4c(O)cccc4F)c(F)cc23)C[C@H]1C [Example 80-21, 1-[4-[(Dimethylamino)methyl]-2-isopropyl-6-methyl-phenyl]-4-[(2S,5R)-2,5-dimethyl-4-prop-2-enoyl-piperazin-1-yl]-6-fluoro-7-(2-fluoro-6-hydroxy-phenyl)pyrido[2,3-d]pyrimidin-2-one]",> 7.5,0.25,0.138,–,–
–,"C=CC(=O)N1C[C@H](C)N(c2nc(=O)n(-c3c(C(C)C)cnn3C(C)C)c3nc(-c4ccccc4F)c(Cl)cc23)C[C@H]1C [Example 100-1, 6-Chloro-1-(2,4-diisopropylpyrazol-3-yl)-4-[(2S,5R)-2,5-dimethyl-4-prop-2-enoyl-piperazin-1-yl]-7-(2-fluorophenyl)pyrido[2,3-d]pyrimidin-2-one]",> 7.5,0.084,0.123,–,–
–,"C=CC(=O)N1C[C@H](C)N(c2nc(=O)n(-c3c(C(C)C)ncnc3C(C)C)c3nc(-c4ccc(C#N)cc4F)c(Cl)cc23)C[C@H]1C [Example 100-2, 4-[6-Chloro-1-(4,6-diisopropylpyrimidin-5-yl)-4-[(2S,5R)-2,5-dimethyl-4-prop-2-enoyl-piperazin-1-yl]-2-oxo-pyrido[2,3-d]pyrimidin-7-yl]-3-fluoro-benzonitrile]",> 7.5,0.324,0.298,–,–
–,"C=CC(=O)N1C[C@H](C)N(c2nc(=O)n(-c3c(C(C)C)ncnc3C(C)C)c3nc(-c4ccccc4C(C)C)c(Cl)cc23)C[C@H]1C [Example 100-4, 6-Chloro-1-(4,6-diisopropylpyrimidin-5-yl)-4-[(2S,5R)-2,5-dimethyl-4-prop-2-enoyl-piperazin-1-yl]-7-(2-isopropylphenyl) pyrido[2,3-d]pyrimidin-2-one]",> 7.5,0.006,0.106,–,–
–,"C=CC(=O)N1C[C@H](C)N(c2nc(=O)n(-c3c(C(C)C)cncc3C(C)C)c3nc(-c4c(O)cccc4F)c(F)cc23)C[C@H]1C [Example 101-1, 1-(3,5-Diisopropyl-4-pyridyl)-4-[(2S,5R)-2,5-dimethyl-4-prop-2-enoyl-piperazin-1-y]-6-fluoro-7-(2-fluoro-6-hydroxy-phenyl)pyrido[2,3-d]pyrimidin-2-one]",–,0.134,–,0.116,> 7.5
–,"C=CC(=O)N1C[C@H](C)N(c2nc(=O)n(-c3c(C(C)C)ncnc3C(C)C)c3nc(-c4ccccc4F)c(F)cc23)C[C@H]1C [Example 101-2, 1-(4,6-Diisopropylpyrimidin-5-yl)-4-[(2S,5R)-2,5-dimethyl-4-prop-2-enoyl-piperazin-1-yl]-6-fluoro-7-(2-fluorophenyl)pyrido [2,3-d]pyrimidin-2-one]",> 7.5,0.16,0.116,–,–
–,"C=CC(=O)N1C[C@@H](C)N(c2nc(=O)n(-c3c(C(C)C)ncnc3C(C)C)c3nc(-c4ccccc4F)c(F)cc23)[C@@H](C)C1 [Example 101-3, 1-(4,6-Diisopropylpyrimidin-5-yl)-4-[(2R,6S)-2,6-dimethyl-4-prop-2-enoyl-piperazin-1-yl]-6-fluoro-7-(2-fluorophenyl)pyrido [2,3-d]pyrimidin-2-one]",> 7.5,0.195,0.208,–,–
–,"C=CC(=O)N1C[C@H](C)N(c2nc(=O)n(-c3c(Cl)ncnc3C(C)C)c3nc(-c4ccccc4F)c(Cl)cc23)C[C@H]1C [Example 102-5, 6-Chloro-1-(4-chloro-6-isopropyl-pyrimidin-5-yl)-4-[(2S,5R)-2,5-dimethyl-4-prop-2-enoyl-piperazin-1-yl]-7-(2-fluorophenyl) pyrido[2,3-d]pyrimidin-2-one]",> 7.5,0.071,–,0.084,–
–,"C=CC(=O)N1C[C@H](C)N(c2nc(=O)n(-c3c(Cl)ncnc3C(C)C)c3nc(-c4ccccc4C)c(Cl)cc23)C[C@H]1C [Example 102-6, 6-Chloro-1-(4-chloro-6-isopropyl-pyrimidin-5-yl)-4-[(2S,5R)-2,5-dimethyl-4-prop-2-enoyl-piperazin-1-yl]-7-(o-tolyl)pyrido[2,3-d]pyrimidin-2-one]",> 7.5,0.066,0.063,–,–
–,"C=CC(=O)N1C[C@H](C)N(c2nc(=O)n(-c3c(N(C)C)ccnc3C(C)C)c3nc(-c4ccccc4C(C)C)c(Cl)cc23)C[C@H]1C [Example 103-1, 4-((2S,5R)-4-Acryloyl-2,5-dimethylpiperazin-1-yl)-6-chloro-1-(4-(dimethylamino)-2-isopropylpyridin-3-yl)-7-(2-isopropylphenyl)pyrido[2,3-d]pyrimidin-2(1H)-one]",> 7.5,0.105,–,0.107,–
–,"C=CC(=O)N1C[C@H](C)N(c2nc(=O)n(-c3c(C(C)C)ncn(C)c3=O)c3nc(-c4ccccc4F)c(Cl)cc23)C[C@H]1C [Example 103-2, 6-Chloro-4-[(2S,5R)-2,5-dimethyl-4-prop-2-enoyl-piperazin-1-yl]-7-(2-fluorophenyl)-1-(4-isopropyl-1-methyl-6-oxo-pyrimidin-5-yl)pyrido[2,3-d]pyrimidin-2-one]",> 7.5,0.084,0.04,–,–
0.677,"C=CC(=O)N1C[C@H](C)N(c2nc(=O)n(-c3c(C(C)C)cccc3[S+](C)[O-])c3nc(-c4ccccc4F)c(Cl)cc23)C[C@H]1C (stereo partly drawn) [Example 103-3, 4-((2S,5R)-4-acryloyl-2,5-dimethylpiperazin-1-yl)-6-chloro-7-(2-fluorophenyl)-1-(2-isopropyl-6-(methylsulfinyl)phenyl)pyrido[2,3-d]pyrimidin-2(1H)-one]",> 7.5,–,0.143,–,–
–,"C=CC(=O)N1C[C@H](C)N(c2nc(=O)n(-c3c(C(C)C)cncc3C(C)C)c3nc(-c4ccccc4F)c(Cl)cc23)C[C@H]1C [Example 103-4, 6-Chloro-1-(3,5-diisopropyl-4-pyridyl)-4-[(2S,5R)-2,5-dimethyl-4-prop-2-enoyl-piperazin-1-yl]-7-(2-fluorophenyl) pyrido[2,3-d]pyrimidin-2-one]",> 7.5,0.057,0.062,–,–
–,"C=CC(=O)N1C[C@H](C)N(c2nc(=O)n(-c3c(N(CC)CC)ccnc3C(C)C)c3nc(-c4ccccc4C(C)C)c(Cl)cc23)C[C@H]1C [Example 103-5, 6-Chloro-1-[4-(diethylamino)-2-isopropyl-3-pyridyl]-4-[(2S,5R)-2,5-dimethyl-4-prop-2-enoyl-piperazin-1-yl]-7-(2-isopropylphenyl) pyrido[2,3-d]pyrimidin-2-one]",> 7.5,0.2,0.507,–,–
–,"C=CC(=O)N1C[C@H](C)N(c2nc(=O)n(-c3c(N(CC)CC)ccnc3C(C)C)c3nc(-c4ccccc4C)c(Cl)cc23)C[C@H]1C [Example 103-6, 6-chloro-1-[4-(diethylamino)-2-isopropyl-3-pyridyl]-4-[(2S,5R)-2,5-dimethyl-4-prop-2-enoyl-piperazin-1-yl]-7-(o-tolyl)pyrido[2,3 d]pyrimidin-2-one]",> 7.5,0.08,0.474,–,–
–,"C=CC(=O)N1C[C@H](C)N(c2nc(=O)n(-c3c(N(C)C)ccnc3C(C)C)c3nc(-c4ccccc4C)c(Cl)cc23)C[C@H]1C [Example 103-7, 6-Chloro-1-[4-(dimethylamino)-2-isopropyl-3-pvridyl]-4-[(2S,5R)-2,5-dimethyl-4-prop-2-enoyl-piperazin-1-yl]-7-(o-tolyl)pyrido[2,3-d]pyrimidin-2-one]",3.75,0.143,–,0.128,–
–,"C=CC(=O)N1C[C@H](C)N(c2nc(=O)n(-c3c(C(C)C)nc(Br)nc3C(C)C)c3nc(-c4ccccc4F)c(Cl)cc23)C[C@H]1C [Example 106-1, 4-((2S,5R)-4-Acryloyl-2,5-dimethylpiperazin-1-yl)-1-(2-bromo-4,6-diisopropylpyrimidin-5-yl)-6-chloro-7-(2-fluorophenyl)pyrido[2,3-d]pyrimidin-2(1H)-one]",4.54,0.08,0.096,–,–
